Laboratory results from patent US20240174744A1, “METHODS OF TREATMENT USING PROTEIN BINDERS TO IRHOM2 EPITOPES” (SCIRHOM GMBH, priority 2021, published 2024).

System: LPS-induced release of TNFα from THP-1 cells
Test: ELISA-based TNFα release assay, LPS-stimulated THP-1 cells
Assay type: cell-based, human
Settings: 10 μg/ml, Batimastat 10 μM, LPS 50 ng/ml, 2 hours
Experimental: In the following study, ELISA-based TNFα release assays were performed to verify the inhibitory effects of the purified antibodies of the present disclosure on LPS-induced release of endogenous TNFα from human THP-1 monocytic cells.
In brief, on day 1, Nunc black MaxiSorp® 96-well plates (Thermo Fisher Scientific, USA) were coated overnight with 100 μl per well of mouse anti-human TNFα capture antibody (provided as part of the DuoSet ELISA kit) at 4 μg/ml TBS at 4° C. On day 2, the capture antibody solution was removed and MaxiSorp® plates were blocked with 300 μl per well of TBS, 1% BSA at room temperature for 3 hours. […] Using an infinite M1000 (Tecan Group, Switzerland) microplate reader, the fluorescence of each well was collected at an excitation wavelength of 435 nm and an emission wavelength of 555 nm. […]

CNC(=O)[C@H](Cc1ccccc1)NC(=O)[C@H](CC(C)C)[C@H](CSc1cccs1)C(=O)NO [Batimastat]
inhibition of LPS-induced release of TNFα from THP-1 cells (antibodies purified from hybridoma supernatants): 96.2% | inhibition of LPS-induced release of TNFα from THP-1 cells (recombinant antibodies (Expi293F)): 96.2%
